{
  "source": "patent US12433913B2",
  "about": "“Treatment of acute respiratory disease syndrome (ARDS) with polysulfated polysaccharides” (Paradigm Biopharmaceuticals Ltd., priority 2020, dated 2025)",
  "key": {"IL-8, MCP-1 and MIP-1a": {"test_system": "IL-8, MCP-1 and MIP-1a", "details": "cited from earlier work"}, "SARS-CoV-2 [1]": {"test_system": "SARS-CoV-2", "assay_type": "cell-based, Vero (Africa Green Monkey kidney epithelium)", "details": "for PFU/well: replicates"}, "SARS-CoV-2 [2]": {"test_system": "SARS-CoV-2", "assay_type": "cell-based, Vero (Africa Green Monkey kidney epithelium)", "details": "for PFU/well: replicates", "remark": "listed apart in the source"}, "alphavirus": {"test_system": "alphavirus", "details": "within 3 to 10 days post PPS treatment in infected animals; cited from earlier work"}, "[3]": {"molecular_target": "T1, human leukocyte elastase (human neutrophil elastase) (Homo sapiens, UniProt P08246)", "T1 sequence (P08246 30-267)": "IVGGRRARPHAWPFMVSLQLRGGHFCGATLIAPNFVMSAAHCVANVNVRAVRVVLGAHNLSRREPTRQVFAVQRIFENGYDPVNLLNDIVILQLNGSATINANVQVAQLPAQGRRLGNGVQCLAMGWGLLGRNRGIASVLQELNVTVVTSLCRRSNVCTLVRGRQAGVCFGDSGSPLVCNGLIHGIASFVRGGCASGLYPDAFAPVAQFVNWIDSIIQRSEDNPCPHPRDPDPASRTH", "details": "cited from earlier work"}, "allergen induced asthma": {"test_system": "allergen induced asthma", "details": "intra-tracheal PPS; cited from earlier work"}, "SARS-CoV-2 [4]": {"test_system": "SARS-CoV-2", "assay_type": "cell-based, Vero (Africa Green Monkey kidney epithelium)", "details": "for PFU/well: replicates", "remark": "listed apart in the source"}, "[5]": {"details": "2 mg/kg twice weekly subcutaneously; cited from earlier work"}, "[6]": {"test_system": "H1N1 PR-8 influenza strain", "test": "Influenza virus-induced ARDS mouse model (Study 1)", "assay_type": "in vivo, C57BL/6J mice"}},
  "note": "“And” between values parts separate entries of the source, which are not always exact repeats. Equal values may be shown once. Read-outs that look alike come from different tables or passages of the source.",
  "data": [
    {"substance": "pentosan polysulfate [PPS]", "values": [
      {"measurement": "Cell movement induced by IL-8, MCP-1 and MIP-1a", "setting": "IL-8, MCP-1 and MIP-1a", "value": "inhibits cell movement"},
      {"measurement": "PFU/well", "setting": "SARS-CoV-2 [1]; PPS 12.5 μg/ml incubated with virus inoculum 30 min prior to addition to Vero cells", "value": "31 PFU/well and 33 PFU/well and 39 PFU/well and 34 PFU/well and 42 PFU/well and 38 PFU/well and 40 PFU/well and 37 PFU/well"},
      {"measurement": "PFU/well", "setting": "SARS-CoV-2 [1]; PPS 25 μg/ml incubated with virus inoculum 30 min prior to addition to Vero cells", "value": "25 PFU/well and 28 PFU/well (2×) and 31 PFU/well (2×) and 34 PFU/well and 33 PFU/well and 35 PFU/well"},
      {"measurement": "PFU/well", "setting": "SARS-CoV-2 [1]; PPS 50 μg/ml incubated with virus inoculum 30 min prior to addition to Vero cells", "value": "24 PFU/well and 21 PFU/well and 28 PFU/well and 31 PFU/well and 32 PFU/well and 30 PFU/well and 29 PFU/well and 26 PFU/well"},
      {"measurement": "PFU/well", "setting": "SARS-CoV-2 [1]; PPS 100 μg/ml incubated with virus inoculum 30 min prior to addition to Vero cells", "value": "19 PFU/well and 17 PFU/well and 23 PFU/well and 26 PFU/well and 22 PFU/well (2×) and 25 PFU/well and 27 PFU/well"},
      {"measurement": "PFU/well", "setting": "SARS-CoV-2 [1]; PPS 200 μg/ml incubated with virus inoculum 30 min prior to addition to Vero cells", "value": "16 PFU/well and 12 PFU/well and 20 PFU/well (2×) and 22 PFU/well and 21 PFU/well and 23 PFU/well and 24 PFU/well"},
      {"measurement": "Maximum inhibition of plaque formation", "setting": "SARS-CoV-2 [1]; top dose of 200 μg/ml, virus treated 30 min prior to infection", "value": 56, "unit": "%"},
      {"measurement": "PFU/well", "setting": "SARS-CoV-2 [2]; PPS 12.5 μg/ml on Vero cells 30 min prior to infection with 50 PFU", "value": "35 PFU/well and 33 PFU/well and 34 PFU/well and 40 PFU/well and 41 PFU/well and 39 PFU/well and 36 PFU/well and 37 PFU/well"},
      {"measurement": "PFU/well", "setting": "SARS-CoV-2 [2]; PPS 25 μg/ml on Vero cells 30 min prior to infection with 50 PFU", "value": "29 PFU/well and 31 PFU/well and 27 PFU/well and 25 PFU/well"},
      {"measurement": "PFU/well", "setting": "SARS-CoV-2 [2]; PPS 200 μg/ml on Vero cells 30 min prior to infection with 50 PFU", "value": "18 PFU/well (2×) and 16 PFU/well (2×) and 20 PFU/well and 21 PFU/well and 17 PFU/well and 19 PFU/well"},
      {"measurement": "Maximum inhibition of plaque formation", "setting": "SARS-CoV-2 [2]; top dose of 200 μg/ml, cells treated 30 min prior to infection", "value": 60, "unit": "%"},
      {"measurement": "Cytokine response (IL-1a; IL-2, IL-6, MIP1a and CCL2)", "setting": "alphavirus", "value": "reduction"},
      {"measurement": "Activity on human leukocyte elastase", "setting": "[3]", "value": "antagonist"},
      {"measurement": "Airway hyper-reactivity", "setting": "allergen induced asthma", "value": "inhibited"},
      {"measurement": "Lung compliance", "setting": "allergen induced asthma", "value": "increased"},
      {"measurement": "Total number of infiltrating leukocytes and neutrophils in the bronchoalveolar fluid", "setting": "allergen induced asthma", "value": "significantly reduced"},
      {"measurement": "Total protein content in the bronchoalveolar fluid", "setting": "allergen induced asthma", "value": "significantly reduced"},
      {"measurement": "PFU/well", "setting": "SARS-CoV-2 [4]; PPS 12.5 μg/ml incubated with both virus and cells 30 min prior to infection", "value": "18 PFU/well and 19 PFU/well and 17 PFU/well and 22 PFU/well and 20 PFU/well (2×) and 25 PFU/well and 26 PFU/well"},
      {"measurement": "PFU/well", "setting": "SARS-CoV-2 [4]; PPS 25 μg/ml incubated with both virus and cells 30 min prior to infection", "value": "18 PFU/well and 15 PFU/well (2×) and 20 PFU/well and 21 PFU/well and 19 PFU/well and 22 PFU/well and 17 PFU/well"},
      {"measurement": "PFU/well", "setting": "SARS-CoV-2 [4]; PPS 50 μg/ml incubated with both virus and cells 30 min prior to infection", "value": "12 PFU/well and 14 PFU/well (2×) and 15 PFU/well and 13 PFU/well and 18 PFU/well (2×) and 16 PFU/well"},
      {"measurement": "PFU/well", "setting": "SARS-CoV-2 [4]; PPS 100 μg/ml incubated with both virus and cells 30 min prior to infection", "value": "8 PFU/well and 12 PFU/well and 11 PFU/well and 7 PFU/well and 13 PFU/well and 10 PFU/well and 16 PFU/well and 9 PFU/well"},
      {"measurement": "PFU/well", "setting": "SARS-CoV-2 [4]; PPS 200 μg/ml incubated with both virus and cells 30 min prior to infection", "value": "6 PFU/well and 12 PFU/well and 10 PFU/well (2×) and 8 PFU/well and 11 PFU/well and 14 PFU/well and 13 PFU/well"},
      {"measurement": "Maximum inhibition of plaque formation", "setting": "SARS-CoV-2 [4]; top dose of 200 μg/ml, virus and cells treated 30 min prior to infection", "value": 77, "unit": "%"},
      {"measurement": "Effect on blood coagulation", "setting": "[5]", "value": "no lasting effect on blood coagulation"},
      {"measurement": "Number of nuclei/mm^2 in lung sections", "setting": "[6]; 3 mg/kg daily ip, Day 8, compared to vehicle treated animals", "value": "statistically significant reduction"},
      {"measurement": "Number of nuclei/mm^2 in lung sections", "setting": "[6]; 3 mg/kg daily sc, Day 8, compared to vehicle treated animals", "value": "statistically significant reduction"},
      {"measurement": "Level of nuclei/mm^2 in infected PPS treated animals relative to uninfected animals", "setting": "[6]; 3 mg/kg daily, Day 8", "value": "comparable to uninfected animals"},
      {"measurement": "Weight loss", "setting": "[6]; 3 mg/kg daily, ip or sc, compared to infected animals treated with vehicle", "value": "reduced weight loss"},
      {"measurement": "Cellular infiltration in representative lung sections", "setting": "[6]; 3 mg/kg ip or sc, Day 8, compared to vehicle treated animals", "value": "reduced cellular infiltration"},
      {"measurement": "Fibrotic response (collagen, Masson's Trichrome stain)", "setting": "[6]; 3 mg/kg sc from Day 0 or Day 2 post-infection, Day 21, compared to vehicle", "value": "fibrotic response was reduced"},
      {"measurement": "Oxygen saturation levels", "setting": "[6]; 3 mg/kg sc from Day 0 or Day 2 post-infection, measured Day 6 and Day 8, compared to vehicle treated infected animals", "value": "improved oxygen saturation levels"}
    ]}
  ]
}
